According to US20090181986A1, “SUBSTITUTED HETEROCYCLIC COMPOUNDS” (priority 2007, published 2009):

Molecular target: hERG potassium channel (Homo sapiens, UniProt Q12809)
Assay: hERG screening assay (PatchXpress patch clamp, CHO cells)

hERG potassium channel, sequence (Q12809 whole entry): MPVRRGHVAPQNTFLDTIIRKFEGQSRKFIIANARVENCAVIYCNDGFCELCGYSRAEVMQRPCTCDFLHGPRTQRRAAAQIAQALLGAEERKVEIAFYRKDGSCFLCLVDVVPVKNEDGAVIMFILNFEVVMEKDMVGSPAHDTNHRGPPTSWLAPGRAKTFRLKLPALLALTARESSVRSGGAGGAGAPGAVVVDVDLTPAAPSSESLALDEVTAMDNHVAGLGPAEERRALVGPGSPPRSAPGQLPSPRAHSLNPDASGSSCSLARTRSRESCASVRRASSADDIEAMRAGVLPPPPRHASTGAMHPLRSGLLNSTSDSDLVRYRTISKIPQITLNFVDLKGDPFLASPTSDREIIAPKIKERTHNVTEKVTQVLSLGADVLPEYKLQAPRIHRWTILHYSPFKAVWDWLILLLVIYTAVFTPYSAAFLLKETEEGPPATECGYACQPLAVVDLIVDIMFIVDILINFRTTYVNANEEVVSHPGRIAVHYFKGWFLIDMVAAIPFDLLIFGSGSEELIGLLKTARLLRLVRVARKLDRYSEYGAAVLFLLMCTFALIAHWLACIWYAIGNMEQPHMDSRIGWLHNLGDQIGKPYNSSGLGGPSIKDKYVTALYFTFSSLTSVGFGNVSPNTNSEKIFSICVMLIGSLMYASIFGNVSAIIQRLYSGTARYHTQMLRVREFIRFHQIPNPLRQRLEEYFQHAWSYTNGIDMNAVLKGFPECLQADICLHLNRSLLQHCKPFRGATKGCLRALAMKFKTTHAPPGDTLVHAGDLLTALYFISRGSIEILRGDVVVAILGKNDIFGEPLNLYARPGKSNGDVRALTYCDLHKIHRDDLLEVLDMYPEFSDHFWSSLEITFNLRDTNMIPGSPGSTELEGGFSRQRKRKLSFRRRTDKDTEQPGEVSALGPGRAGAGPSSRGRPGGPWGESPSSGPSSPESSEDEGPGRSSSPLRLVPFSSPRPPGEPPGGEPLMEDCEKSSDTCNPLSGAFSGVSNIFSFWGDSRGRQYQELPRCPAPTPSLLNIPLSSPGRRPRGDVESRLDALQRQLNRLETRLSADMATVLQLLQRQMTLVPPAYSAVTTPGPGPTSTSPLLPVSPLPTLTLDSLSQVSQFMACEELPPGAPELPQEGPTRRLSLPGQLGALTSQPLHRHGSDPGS

SMILES | hERG Patch Clamp hERG % blk (1 μM test cmpd) [%] | hERG Patch Clamp hERG % blk (10 μM test cmpd) [%]
CC1=C(C(=O)OC(c2ccccc2)C2CC2)C(c2cccc3ccccc23)n2nnnc2N1 (centres unmarked) [PT-002, cyclopropyl(phenyl)methyl 5-methyl-7-(naphthalen-1-yl)-4,7-dihydrotetrazolo[1,5-a]pyrimidine-6-carboxylate] | 11.5 | 28
CCOC(=O)C1=C(CC)Nc2nnnn2C1c1cccc2ccccc12 (centres unmarked) [PT-010, ethyl 5-ethyl-7-(naphthalen-1-yl)-4,7-dihydrotetrazolo[1,5-a]pyrimidine-6-carboxylate] | 12.5 | 30
CCOC(=O)C1=C(C)Nc2nnnn2C1c1csc2ccccc12 (centres unmarked) [PT-017, ethyl 7-(benzo[b]thiophen-3-yl)-5-methyl-4,7-dihydrotetrazolo[1,5-a]pyrimidine-6-carboxylate] | 10 | 23.5
CCOC(=O)C1=C(C)Nc2nnnn2C1c1sc2ccccc2c1C (centres unmarked) [PT-018, ethyl 5-methyl-7-(3-methylbenzo[b]thiophen-2-yl)-4,7-dihydrotetrazolo[1,5-a]pyrimidine-6-carboxylate] | 14.5 | 36.5
CCOC(=O)C1=C(C)Nc2nnnn2C1c1cc2ccccc2o1 (centres unmarked) [PT-019, ethyl 7-(benzofuran-2-yl)-5-methyl-4,7-dihydrotetrazolo[1,5-a]pyrimidine-6-carboxylate] | 10 | 26
CC1=C(C(=O)OC(C)C)C(c2cccc3ccccc23)n2nnnc2N1 (centres unmarked) [PT-021, isopropyl 5-methyl-7-(naphthalen-1-yl)-4,7-dihydrotetrazolo[1,5-a]pyrimidine-6-carboxylate] | 13 | 43.5
CC1=C(C(=O)OCc2ccccc2)C(c2ccccc2-c2ccccc2)n2nnnc2N1 (centres unmarked) [PT-025, benzyl 7-(biphenyl-2-yl)-5-methyl-4,7-dihydrotetrazolo[1,5-a]pyrimidine-6-carboxylate] | 11 | 53
COc1ccc2ccccc2c1C1C(C(=O)OCc2ccccc2)=C(C)Nc2nnnn21 (centres unmarked) [PT-030, benzyl 7-(2-methoxynaphthalen-1-yl)-5-methyl-4,7-dihydrotetrazolo[1,5-a]pyrimidine-6-carboxylate] | 10.5 | 34.5
CC1=C(C(=O)OCc2ccccc2)C(c2ccc(N(C)C)c3ccccc23)n2nnnc2N1 (centres unmarked) [PT-032, benzyl 7-(4-(dimethylamino)naphthalen-1-yl)-5-methyl-4,7-dihydrotetrazolo[1,5-a]pyrimidine-6-carboxylate] | 19 | 50.5
CC1=C(C(=O)OCc2ccccc2)C(c2cccc3c2OCO3)n2nnnc2N1 (centres unmarked) [PT-034, benzyl 7-(benzo[d][1,3]dioxol-4-yl)-5-methyl-4,7-dihydrotetrazolo[1,5-a]pyrimidine-6-carboxylate] | 14.5 | 56
CC1=C(C(=O)O[C@@H](C)c2ccccc2)[C@@H](c2cccc3ccccc23)n2nnnc2N1 [PT-050, (R)-((S)-1-phenylethyl) 5-methyl-7-(naphthalen-1-yl)-4,7-dihydrotetrazolo[1,5-a]pyrimidine-6-carboxylate] | 10 | 53.5
COc1ccc(COC(=O)C2=C(C)Nc3nnnn3C2c2cccc3ccccc23)cc1OC (centres unmarked) [PT-061, 3,4-dimethoxybenzyl 5-methyl-7-(naphthalen-1-yl)-4,7-dihydrotetrazolo[1,5-a]pyrimidine-6-carboxylate] | 24 | 46.5
CC1=C(C(=O)OC(C)Cc2ccccc2)C(c2cccc3ccccc23)n2nnnc2N1 (centres unmarked) [PT-064, 1-phenylpropan-2-yl 5-methyl-7-(naphthalen-1-yl)-4,7-dihydrotetrazolo[1,5-a]pyrimidine-6-carboxylate] | 20.5 | 37.5
CC1=C(C(=O)NCc2ccccc2)C(c2ccc3ccccc3c2)n2nnnc2N1 (centres unmarked) [PT-068, N-benzyl-5-methyl-7-(naphthalen-2-yl)-4,7-dihydrotetrazolo[1,5-a]pyrimidine-6-carboxamide] | 14 | 22.5
CCOC(=O)C1=C(C)Nc2[nH]nc(C)c2C1c1cccc2ccccc12 (centres unmarked) [PT-074, ethyl 3,6-dimethyl-4-(naphthalen-1-yl)-4,7-dihydro-1H-pyrazolo[3,4-b]pyridine-5-carboxylate] | 14 | 43
COC(=O)c1ccc(-c2n[nH]c3c2C(c2cccc4ccccc24)C2=C(COC2=O)N3)cc1 (centres unmarked) [PT-085, methyl 4-(4-(naphthalen-1-yl)-5-oxo-4,5,7,8-tetrahydro-1H-furo[3,4-b]pyrazolo[4,3-e]pyridin-3-yl)benzoate] | 34 | 44.5

SMILES | hERG Patch Clamp hERG % blk (1 μM test cmpd) [%] | hERG Patch Clamp hERG % blk (10 μM test cmpd) [%]
CCOC(=O)C1=C(C)Nc2nccn2C1c1ccc2ccccc2c1 (centres unmarked) [PT-086, ethyl 7-methyl-5-(naphthalen-2-yl)-5,8-dihydroimidazo[1,2-a]pyrimidine-6-carboxylate] | 13.5 | 57.5
CCCC1=C(C(=O)OCC)C(c2ccc(C(=O)O)cc2)C2=C(CC(C)(C)CC2=O)N1 (centres unmarked) [PT-133, 4-(3-(ethoxycarbonyl)-7,7-dimethyl-5-oxo-2-propyl-1,4,5,6,7,8-hexahydroquinolin-4-yl)benzoic acid] | 10 | 12
CCOC(=O)C1=C(C)NC2=C(C(=O)CCC2)C1c1cccc2ncccc12 (centres unmarked) [PT-140, ethyl 2-methyl-5-oxo-1,4,5,6,7,8-hexahydro-4,5′-biquinoline-3-carboxylate] | 13.5 | 34.5
CCOC(=O)C1=C(C)NC2=C(C(=O)CCC2)C1c1ccnc2ccccc12 (centres unmarked) [PT-190, ethyl 2-methyl-5-oxo-1,4,5,6,7,8-hexahydro-4,4′-biquinoline-3-carboxylate] | 10.5 | 32
CC1=C(C(=O)OCc2ccccc2)[C@@H](c2ccccc2-c2ccc(Cl)s2)n2nnnc2N1 [PT-237, (R)-benzyl 7-(2-(5-chlorothiophen-2-yl)phenyl)-5-methyl-4,7-dihydrotetrazolo[1,5-a]pyrimidine-6-carboxylate] | 11.5 | 22.5
CC1=C(C(=O)OCc2ccccc2)C(c2ccccc2-c2ccc(C(=O)O)cc2)C2=C(CCCC2=O)N1 (centres unmarked) [PT-249, 2′-(3-(benzyloxycarbonyl)-2-methyl-5-oxo-1,4,5,6,7,8-hexahydroquinolin-4-yl)biphenyl-4-carboxylic acid] | 11.5 | 15.5
CC1=C(c2nnc(CCc3ccccc3)o2)C(c2cccc3ccccc23)n2nnnc2N1 (centres unmarked) [PT-252, 2-(5-methyl-7-(naphthalen-1-yl)-4,7-dihydrotetrazolo[1,5-a]pyrimidin-6-yl)-5-phenethyl-1,3,4-oxadiazole] | 10.5 | 78
CC1=C(C(=O)OCc2ccccc2)C(c2ccccc2-c2ccc(C(=O)O)cc2)n2nnnc2N1 (centres unmarked) [PT-254, 2′-(6-(benzyloxycarbonyl)-5-methyl-4,7-dihydrotetrazolo[1,5-a]pyrimidin-7-yl)biphenyl-4-carboxylic acid] | 15 | 20
CC1=C(C(=O)OCc2ccc(Cn3cccn3)cc2)C(c2cccc3ccccc23)n2nnnc2N1 (centres unmarked) [PT-279, 4-((1H-pyrazol-1-yl)methyl)benzyl 5-methyl-7-(naphthalen-1-yl)-4,7-dihydrotetrazolo[1,5-a]pyrimidine-6-carboxylate] | 12.5 | 45
CC1=C(C(=O)OCc2ccc(Cn3cccn3)cc2)C(c2cccs2)n2nnnc2N1 (centres unmarked) [PT-280, 4-((1H-pyrazol-1-yl)methyl)benzyl 5-methyl-7-(thiophen-2-yl)-4,7-dihydrotetrazolo[1,5-a]pyrimidine-6-carboxylate] | 11.5 | 48
CC1=C(C(=O)OCc2ccccc2)C(c2c(-c3ccc(C(=O)O)cc3)sc3ccccc23)n2nnnc2N1 (centres unmarked) [PT-294, 4-(3-(6-(benzyloxycarbonyl)-5-methyl-4,7-dihydrotetrazolo[1,5-a]pyrimidin-7-yl)benzo[b]thiophen-2-yl)benzoic acid] | 12.5 | 15.5
COc1cc(Cl)ccc1COC(=O)C1=C(C)NC2=C(C(=O)CCC2)C1c1c(Cl)cccc1Cl (centres unmarked) [PT-303, 4-chloro-2-methoxybenzyl 4-(2,6-dichlorophenyl)-2-methyl-5-oxo-1,4,5,6,7,8-hexahydroquinoline-3-carboxylate] | 12 | 30.5
COc1cc(Cl)ccc1COC(=O)C1=C(C)Nc2nnnn2C1c1c(Cl)cccc1Cl (centres unmarked) [PT-306, 4-chloro-2-methoxybenzyl 7-(2,6-dichlorophenyl)-5-methyl-4,7-dihydrotetrazolo[1,5-a]pyrimidine-6-carboxylate] | 10 | 48.5
COc1cc(Cl)ccc1COC(=O)C1=C(C)Nc2nnnn2C1c1c(C)cccc1C (centres unmarked) [PT-307, 4-chloro-2-methoxybenzyl 7-(2,6-dimethylphenyl)-5-methyl-4,7-dihydrotetrazolo[1,5-a]pyrimidine-6-carboxylate] | 10 | 62.5
C=CCOC(=O)C1=C(C)Nc2nnnn2C1c1cccc2ccccc12 (centres unmarked) [PT-319, allyl 5-methyl-7-(naphthalen-1-yl)-4,7-dihydrotetrazolo[1,5-a]pyrimidine-6-carboxylate] | 10 | 41
